Test results: publication PMC7531004, “Discovery of gramicidin A analogues with altered activities by multidimensional screening of a one-bead-one-compound library” (Nature Communications, 2020)
“And” between values parts separate entries of the source, which are not always exact repeats. Equal values may be shown once. Read-outs that look alike come from different tables or passages of the source. Where a SMILES comes first, the peptide text is derived from it. [ ]: non-standard residue; d: D form. The star is where a group is joined. NHCH2CH2OH = OCCN*; For = O=C*

Experiments:
rabbit red blood cells = details: red cells of rabbit, 2 h
Procedure: Second, we examined the cytotoxicity toward mammalian cancer cells and hemolytic activity of 1. […] Hemolytic activity was evaluated by monitoring hemoglobin leakage from rabbit red blood cells as a consequence of membrane damage. The concentration of 1 required to cause 10% hemoglobin leakage (HC10) was 160 nM. Thus, the P388 cytotoxicity of 1 was 28-fold more sensitive than its hemolytic activity.
Hemolysis assay of purified peptides. […]
with DMSO to various concentrations as 3-fold serial dilution. A 50% suspension of rabbit blood in Alsever's solution was obtained from Nippon Bio -Supp. Center . The blood suspension (250 µL) w as diluted with phosphate buffered saline (no calcium, no magnesium, 1.00 mL). The resultant suspension was centrifuged at 1000 × g for 3 min at 8 °C. The supernatant was discarded, and the collected cells were resuspended in phosphate buffered saline (no calcium, no magnesium, 1.00 mL). The same procedure was repeated (× 3). The resultant suspension (100 µL) was diluted with phosphate buffered saline (no calcium, no magnesium, 4.90 mL) to give 0.2% red blood cells suspension. The 0.2% red blood cells suspension (95.0 µL) and each dilution series of the purified peptide in DMSO (5 .0 µL) were mixed in 2 mL microtube.
supernatant was transferred to a 96-well plate (TR5003, TrueLine). The absorbance of each well at 415 nm was measured using a Thermo Scientific Multiskan GO (Thermo Fisher Scientific). The mixture of Triton X-100/H2O (5/95, 2.0 µL), DMSO (5.0 µL), and the 0.2% red blood cells suspension (95.0 µL) was used to determine 100% hemolysis. The mixture of DMSO (5.0 µL) and the 0.2% red blood cells suspension (95.0 µL) was used to determine 0% hemolysis. The hemolytic activities of tested peptides ( I) were normalized against 100% hemolysis by Triton X -100 (Imax) and 0% hemolysis by DMSO (I0) according to Supplementary Equation 3, where Ix is the UV absorbance.
I = 100 × (Ix – I0) / (Imax – I0) (3)
The hemolytic activities of the purified peptides were evaluated as the concentrations causing 10% hemolysis (HC10, nM) by means of three replicates. Sigmoidal curve fittings were performed on GraphPad Prism (GraphPad software, Supplementary Figure 7).

[1] = H+/Na+ transport assay of purified peptides; details: for Supplementary Figure 5 dose-response value (H+/Na+ transport): three replicate lines
Procedure: First, we evaluated the ion channel function of 1 using liposomes. To mimic a negatively charged Gram-positive bacterial membrane, the liposomes were prepared as large unilamellar vesicles (LUVs) comprising a 19:1 mixture of egg yolk phosphatidylcholine (EYPC) and egg yolk phosphatidylglycerol (EYPG)[57]. Pyranine, a pH-dependent fluorescent dye[58], was encapsulated in the LUVs and a pH gradient was applied across the membrane. H^+/Na^+ transport induced by a peptide was monitored by changes in the fluorescence intensity of pyranine.

[2] = read-out: EC50, H+/Na+ transport assay, 1st experiment
[3] = read-out: EC50, H+/Na+ transport assay, 2nd experiment
[4] = read-out: EC50, H+/Na+ transport assay, 3rd experiment
[5] = read-out: H+/Na+ transport activity EC50, EYPC/EYPG (19:1) LUVs
[6] = read-out: H+/Na+ transport activity/EC50, mean ± SD of three independent experiments

EC50 [1, 2] | EC50 [1, 3] | EC50 [1, 4] | EC50 [1, 5] | EC50 [1, 6] | SMILES | Hemolytic activity HC10 (concentration causing 10% hemolysis) (rabbit red blood cells) | Supplementary Figure 5 dose-response value (H+/Na+ transport) ([1]; concentration 0.000512 nM) | Supplementary Figure 5 dose-response value (H+/Na+ transport) ([1]; concentration 0.00256 nM) | Supplementary Figure 5 dose-response value (H+/Na+ transport) ([1]; concentration 0.0128 nM) | Supplementary Figure 5 dose-response value (H+/Na+ transport) ([1]; concentration 0.064 nM) | Supplementary Figure 5 dose-response value (H+/Na+ transport) ([1]; concentration 0.32 nM) | Supplementary Figure 5 dose-response value (H+/Na+ transport) ([1]; concentration 1.6 nM) | Supplementary Figure 5 dose-response value (H+/Na+ transport) ([1]; concentration 8 nM) | Supplementary Figure 5 dose-response value (H+/Na+ transport) ([1]; concentration 40 nM) | Supplementary Figure 5 dose-response value (H+/Na+ transport) ([1]; concentration 200 nM) | Supplementary Figure 5 dose-response value (H+/Na+ transport) ([1]; concentration 1000 nM) | Supplementary Figure 5 dose-response value (H+/Na+ transport) ([1]; concentration 5000 nM)
3.43 nM | 3.5 nM | 4.18 nM | 3.7 nM | 3.71 ± 0.42 nM | CC(C)C[C@@H](NC(=O)[C@H](C)NC(=O)CNC(=O)[C@@H](NC=O)C(C)C)C(=O)N[C@@H](C)C(=O)N[C@@H](C(=O)N[C@H](C(=O)N[C@@H](C(=O)N[C@@H](Cc1c[nH]c2ccccc12)C(=O)N[C@@H](C(=O)N[C@@H](Cc1c[nH]c2ccccc12)C(=O)N[C@H](CC(C)C)C(=O)N[C@@H](Cc1c[nH]c2ccccc12)C(=O)N[C@@H](C(=O)N[C@@H](Cc1c[nH]c2ccccc12)C(=O)NCCO)C(C)C)C(C)C)C(C)C)C(C)C)C(C)C [B04] (For-VGA[dL]A[dV]V[dV]W[dV]W[dL]W[dV]W-NHCH2CH2OH) | 1100 nM | -0.2346 and 0.9427 and 1.027 | 1.3317 and 0.8542 and 1.548 | -1.2605 and 2.862 and -0.09432 | 5.945 and 3.111 and 2.028 | 10.5694 and 12.3828 and 8.56 | 26.4566 and 23.815 and 22.5252 | 54.4909 and 53.2036 and 54.0987 | 70.9935 and 73.4781 and 68.8062 | 73.8391 and 72.9169 and 76.5429 | 75.0683 and 78.833 and 77.3632 | 78.0479 and 76.1013 and 78.9016
2.67 nM | 1.67 nM | 2.49 nM | 2.3 nM | 2.28 ± 0.54 nM | CC(C)C[C@@H](NC(=O)[C@H](Cc1c[nH]c2ccccc12)NC(=O)[C@H](NC(=O)[C@@H](NC(=O)[C@H](NC(=O)[C@H](C)NC(=O)[C@H](NC(=O)[C@H](C)NC(=O)CNC(=O)[C@@H](NC=O)C(C)C)C(C)C)C(C)C)C(C)C)C(C)C)C(=O)N[C@@H](Cc1c[nH]c2ccccc12)C(=O)N[C@@H](C(=O)N[C@@H](Cc1c[nH]c2ccccc12)C(=O)N[C@@H](C(=O)N[C@@H](Cc1c[nH]c2ccccc12)C(=O)NCCO)C(C)C)C(C)C [B01] (For-VGA[dV]A[dV]V[dV]W[dL]W[dV]W[dV]W-NHCH2CH2OH) | 1100 nM | 1.909 and 4.796 and 3.187 | 2.582 and 3.582 and 5.168 | 3.806 and 6.172 and 6.274 | 6.1 and 7.567 and 7.349 | 11.2834 and 14.5673 and 12.3484 | 32.2794 and 31.2161 and 30.2392 | 59.2885 and 57.8145 and 59.5121 | 71.8328 and 71.2991 and 68.3245 | 69.4784 and 69.9514 and 71.5477 | 71.9268 and 73.661 and 73.9278 | 81.6644 and 79.4929 and 76.8567
6.44 nM | 2.58 nM | 7.92 nM | 5.7 nM | 5.65 ± 2.76 nM | CC(C)C[C@@H](NC(=O)[C@H](C)NC(=O)CNC(=O)[C@@H](NC=O)C(C)C)C(=O)N[C@@H](C)C(=O)N[C@H](CC(C)C)C(=O)N[C@H](C(=O)N[C@H](CC(C)C)C(=O)N[C@@H](Cc1c[nH]c2ccccc12)C(=O)N[C@H](CC(C)C)C(=O)N[C@@H](Cc1c[nH]c2ccccc12)C(=O)N[C@@H](C(=O)N[C@@H](Cc1c[nH]c2ccccc12)C(=O)N[C@@H](C(=O)N[C@@H](Cc1c[nH]c2ccccc12)C(=O)NCCO)C(C)C)[C@H](C)O)C(C)C [B11] (For-VGA[dL]A[dL]V[dL]W[dL]W[dT]W[dV]W-NHCH2CH2OH) | 910 nM | 2.871 and 2.386 and 5.02 | 3.181 and 2.224 and 1.333 | 4.586 and 1.99 and 1.993 | 7.716 and 4.162 and 7.014 | 12.4442 and 13.4783 and 13.1353 | 25.1993 and 24.5125 and 22.5261 | 38.4333 and 37.5732 and 33.164 | 66.9626 and 64.2822 and 61.6393 | 70.7655 and 66.8425 and 69.2783 | 70.5972 and 73.9169 and 73.5278 | 72.3937 and 72.1348 and 73.2071
3.08 nM | 1.68 nM | 5.38 nM | 3.4 nM | 3.38 ± 1.87 nM | CC(C)C[C@@H](NC(=O)[C@H](C)NC(=O)[C@H](NC(=O)[C@H](C)NC(=O)CNC(=O)[C@@H](NC=O)C(C)C)C(C)C)C(=O)N[C@H](C(=O)N[C@@H](C(=O)N[C@@H](Cc1c[nH]c2ccccc12)C(=O)N[C@@H](C(=O)N[C@@H](Cc1c[nH]c2ccccc12)C(=O)N[C@H](CC(C)C)C(=O)N[C@@H](Cc1c[nH]c2ccccc12)C(=O)N[C@H](CC(C)C)C(=O)N[C@@H](Cc1c[nH]c2ccccc12)C(=O)NCCO)C(C)C)C(C)C)C(C)C [B02] (For-VGA[dV]A[dL]V[dV]W[dV]W[dL]W[dL]W-NHCH2CH2OH) | 1400 nM | 0.2643 and 0.7827 and 0.1241 | 2.146 and 0.0547 and 1.671 | 4.163 and 0.6112 and 1.64 | 7.246 and 2.883 and 3.652 | 11.0985 and 10.392 and 10.3413 | 29.1914 and 27.2825 and 29.9486 | 56.3118 and 49.6431 and 51.0872 | 73.3306 and 69.0608 and 69.1921 | 73.6961 and 72.6071 and 72.9778 | 75.3536 and 79.2012 and 75.9728 | 75.4417 and 72.7674 and 77.9824
